Test results from US7741283B2, “Compositions and methods for inhibiting cell proliferation” (St. Louis University, priority 2003, dated 2010).

Tests used:
[1] = test system: PEA-C11 cells; experiment: [methyl-3H] thymidine incorporation, PEA-C11 cells; assay type: cell-based, mink; conditions: IGFBP-3 0.5 μg/ml
[2] = test system: PEA-C11 cells; experiment: Cell growth (cell number), PEA-C11 cells; assay type: cell-based, mink; conditions: IGFBP-3 0.5 μg/ml, PEA-C11, 4-day
Description: FIG. 6 depicts the effects of IGFBP-3 and TGF-β1 on DNA synthesis (A), cell growth (B) and PAI-1 expression (C) in Mv1Lu and PEA-C11 cells. (A,B) Cells were incubated with various concentrations of IGFBP-3 (a) or TGF-β1 (b) as indicated. DNA synthesis and cell growth were determined by measuring the [methyl-^3H] thymidine incorporation into cellular DNA after 18 hr incubation (A) and by counting cell number after a 4-day incubation (B), respectively. The [methyl-^3H] thymidine incorporation in cells treated without IGFBP-3 and TGF-β1 (29,170±1,657 and 59,947±7,692 cpm/well for Mv1Lu and PEA-C11 cells, respectively) were taken as 0% inhibition. […] Each data point is the mean±S.D. of quadruplicate determinations. […] Data are representative of eight similar experiments. (C) Cells were incubated with various concentrations of TGF-β1 as indicated. After 2 hr at 37° C., the PAI-1 expression was determined by Northern blot analysis. The expression of glyceraldehyde-3-phosphate dehydrogenase (G3PDH) was used as control. The relative levels of the transcripts were quantified by a Phospholmager. Data are representative of four similar experiments.
Cells were plated at a density of 1-2×10^4 cells/dish in DMEM containing 1% fetal calf serum. The cell number was counted every day or after a 3-day incubation using a hematocytometer. The assays were performed in quadruplicate.

[3] = test system: PEA-13 cells; experiment: [methyl-3H] thymidine incorporation, PEA-13 cells; assay type: cell-based, mouse; conditions: IGFBP-3 up to 1 μg/ml
Description: FIG. 7 depicts the effect of TGF-β1 on DNA synthesis (A), cell growth (B) and PAI-1 expression (C) in MEF and PEA-13 cells. (A) Cells were treated with various concentrations of TGF-β1 as indicated. DNA synthesis was determined by measuring [methyl-^3H] thymidine incorporation into cellular DNA. The [methyl-^3H] thymidine incorporation in cells treated without TGF-β1 (100,861±3,720 and 103,262±6,722 cpm/well for MEF and PEA-13 cells, respectively) was taken as 0% inhibition. The negative values of inhibition indicate mitogenic activity. […] Each datapoint is the mean±S.D. of quadruplicate determinations. […] Data are representative of six similar experiments. (B) Cells were treated with various concentrations of TGF-β1 as indicated. The cell number was counted after a 4 day incubation. […] The negative values of the inhibition indicate the growth stimulatory activity. Each datapoint is the mean±S.D. of quadruplicate determinations. […] Data are representative of four similar experiments. (C) Cells were treated with various concentrations of TGF-β1 as indicated. The PAI-1 expression in these cells was determined by Northern blot analysis. The expression of G3PDH was used as control. The relative levels of the transcripts were quantified by a PhosphoImager. Data are representative of four similar experiments. […]

[4] = test system: H1299/LRP cells; experiment: Cell growth (cell number), H1299/LRP cells; assay type: cell-based, human; conditions: TGF-β1 20 pM or IGFBP-3 1 μg/ml, 3-day
[5] = test system: H1299/vector cells; experiment: Cell growth (cell number), H1299/vector cells; assay type: cell-based, human; conditions: TGF-β1 20 pM or IGFBP-3 1 μg/ml, 3-day
[6] = test system: DR26 cells; experiment: [methyl-3H] thymidine incorporation, DR26 cells; assay type: cell-based, mink; conditions: IGFBP-3 0.5 μg/ml, DR26
Description: (A,B) DR26 cells were incubated with various concentrations as indicated of IGFBP-3 in the absence (A) and presence (B) of various concentrations of insulin. After 18 hr at 37° C., the [methyl-^3H] thymidine incorporation into cellular DNA was determined. (C,D,E) Mv1Lu, DR26 and R1B cells metabolically labeled with ^[…]-orthophosphate for 2 hr were treated with IGFBP-3 (1:g/ml) or insulin (10 nM) (C). DR26 cells metabolically labeled with ^[…]-orthophosphate for 2 hr were treated with or without IGFBP-3 (1 μg/ml) in the presence of various concentrations of TGF-β1 as indicated (D). Mv1Lu cells expressing αIβI and αIβII chimeric receptors (MB102-16 and MB102-9 cells, respectively) metabolically labeled with ^[…]-orthophosphate for 2 hr were treated with or without IGFBP-3 (1 μg/ml) or GM-CSF (1 nM) (E). After 2 hr at 37° C. (in the absence of […]-orthophosphate in the medium), the ^[…]-labeled IRS-2 was immunoprecipitated and analyzed by 7.5% SDS-PAGE and autoradiography. […]
Mv1Lu cells were plated on 24-well clustered dishes and incubated with various concentrations of TGF-β1 or IGFBP-3 in DMEM containing 0.1% fetal calf serum. After incubation at 37° C. for 18 hr, the cells were pulse-labeled with 1 μCi of [methyl-^3H]thymidine at 37° C. for 2 hr and the [methyl-^3H] thymidine incorporation into cellular DNA was determined as described previously (59). […]

[7] = test system: 32D/IRS-1 cells; experiment: [methyl-3H] thymidine incorporation, 32D/IRS-1 cells; assay type: cell-based, murine; conditions: 32D cells expressing IRS-1

Substance: IGFBP-3: human insulin-like growth factor binding protein-3 expressed in E. Coli
- Inhibition of DNA synthesis [1]: ~10%
- Inhibition of cell growth [2]: ~45%
- Effect on DNA synthesis [3]: did not appear to have a significant effect
- Effect on cell growth [4]: inhibited
- Effect on cell growth [5]: acted as mitogens or growth stimulators
- Inhibition of DNA synthesis [6]: ~80%
- Growth inhibitory response (DNA synthesis) [7]: potent growth inhibitory response
